According to US12686676B2, “Compound, endothelin-A receptor antagonist, and pharmaceutical composition” (Alchemedicine, Inc., priority 2021, dated 2026):

How the values were obtained:
[1] = PAMPA membrane permeability test; format: in vitro ADME; conditions: 10 μM, room temperature, 16 hours
Experimental: The membrane permeability test was carried out using PAMPA. The specific method is as follows. • (1) Lecithin was added at 2% (w/v) into a dodecane solution and completely dissolved. • (2) 5 μL of the lecithin/dodecane solution was added to each well of a donor plate. In this respect, a pipette tip was positioned in no contact with the membrane. • (3) Immediately thereafter, 150 μL of a donor solution (5% DMSO-PBS) containing an evaluation compound (10 μM) was added to each well of the donor plate, and 300 μL of an aqueous buffer was added to each well of a PTFE acceptor plate. • (4) The donor plate filled with the donor solution containing the evaluation compound was slowly placed on the acceptor plate, and the undersurface of the membrane was confirmed to be in contact with the buffer in all the wells. • (5) After covering, the apparatus was incubated at room temperature for 16 hours. • (6) After incubation, 100 μL of the solution was recovered from each of the upper surface and the undersurface of the membrane in the acceptor plate, and acetonitrile containing an equal amount of an internal standard was added thereto. • (7) The concentration of the evaluation compound was measured to calculate a permeation rate.
A sample having a membrane permeation rate value of 1×10^−8 cm/sec or lower was given “C”; a sample having a value in the range of higher than 1×10^−8 cm/sec and 10×10^−8 cm/sec or lower was given “B”; and a sample having a value of higher than 10×10^−8 cm/sec was given “A”.

[2] = Metabolic stability in human liver microsome; format: in vitro ADME; conditions: after 30 minutes with NADPH; further: tested at 0.99 µM
Experimental: The metabolic stability in a human liver microsome was evaluated by the following method.
• (1) Human liver microsome: 20 mg/mL • (2) Test compound: 1.1 mM solution in DMSO • (3) Potassium phosphate buffer solution: 66.7 mM (pH 7.4) • (4) NADPH solution: 10 mM in a potassium phosphate buffer solution • (5) Quenching solution: 0.5% formic acid solution in acetonitrile containing warfarin as an internal standard 2. Method
(§1) 971.5 μL of the potassium phosphate buffer solution and 27.5 μL of the human liver microsome were placed in a propylene tube and suspended. 1 μL of the test compound was added thereto, and a 180 μL aliquot of this mixture was transferred to a fresh tube. The mixture was preincubated at 37° C. for 5 minutes. Then, 20 μL of the NADPH solution (for an incubation time of 30 minutes) or 20 μL of the potassium phosphate buffer solution (for an incubation time of 0 minutes) was added thereto. After incubation, the reaction was terminated by the addition of 200 μL of the quenching solution. Subsequently, the tube was centrifuged at 3220×g for 20 minutes, and the concentration of an unchanged form of the test compound in […] of a supernatant was measured by LC-MS/MS. On the basis of the obtained peak area of the unchanged form, the residual rate (%) of the unchanged form was calculated using the rate of 0 minutes of incubation time as 100%.

[3] = target: T1, human endothelin B receptor (Homo sapiens, UniProt P24530); experiment: Endothelin B receptor inhibitory effect (aequorin light emission, endothelin at EC80); format: cell-based; conditions: for IC50: CHO-K1-mt aequorin cells expressing human endothelin B receptor, endothelin at EC80, read-out: ETB receptor inhibitory effect
T1 construct: expressed in transfected cells; host or cells: CHO-K1-mt aequorin cells
T1 sequence (P24530 27-442): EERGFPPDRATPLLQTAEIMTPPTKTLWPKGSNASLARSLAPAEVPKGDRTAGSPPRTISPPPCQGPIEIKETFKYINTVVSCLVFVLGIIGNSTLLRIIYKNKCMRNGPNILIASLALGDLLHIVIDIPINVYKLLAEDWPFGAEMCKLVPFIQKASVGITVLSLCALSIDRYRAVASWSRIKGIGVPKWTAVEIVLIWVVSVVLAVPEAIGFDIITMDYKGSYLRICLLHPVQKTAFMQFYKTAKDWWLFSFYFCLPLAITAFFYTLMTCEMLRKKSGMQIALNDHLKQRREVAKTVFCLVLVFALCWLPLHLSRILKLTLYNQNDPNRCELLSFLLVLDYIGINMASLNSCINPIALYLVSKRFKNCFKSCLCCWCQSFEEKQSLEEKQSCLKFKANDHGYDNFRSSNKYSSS
Experimental: The inhibitory effect on an endothelin B receptor was studied by the following method.
CHO-K1-mt aequorin cells forced to express a human endothelin B receptor (Accession Number NP_000106.1) were cultured in an antibiotic-free medium for 18 hours, then treated with PBS-EDTA (5 mM EDTA), centrifuged (2 min, 405×g, room temperature), and then suspended in an assay buffer (DMEM/HAM's F12 with HEPES+0.1% BSA protease free).
1×10^6 cells/mL of the cells were incubated at room temperature for 4 hours in the presence of coelenterazine h (Molecular Probes, Inc.) (final concentration: 5 µM). Agonistic reaction based on endothelin was confirmed to determine an endothelin concentration corresponding to EC80.
Subsequently, 50 µL (10000 cells/well) of the cell suspension treated with coelenterazine h and 50 µL of an assay buffer containing a test substance (final concentration: 0.5% in DMSO) were added to each well of a 96-well plate. 15 minutes later, endothelin was added such that its final concentration was an EC80 concentration. Receptor activity was measured as the quantity of light emission in FDSS6000 (Hamamatsu Photonics K.K.).

[4] = Metabolic stability in mouse liver microsome; format: in vitro ADME; conditions: after 30 minutes with NADPH; further: tested at 0.99 µM
Experimental: as §1
The metabolic stability in a mouse liver microsome was evaluated by the same method as above except that the mouse liver microsome was used instead of the human liver microsome.

| Structure (SMILES) | Membrane permeation rate [1] | Metabolic stability (human), residual rate of the unchanged form [2] | IC50 [3] | Metabolic stability (mouse), residual rate of the unchanged form [4] | inhibition at 5 µM ([3]; at 5000 nM, read-out: ETB receptor inhibitory effect, % inhibition) |
| --- | --- | --- | --- | --- | --- |
| Cc1cc2c(cc1C#Cc1ncccc1S(=O)(=O)Nc1noc(C)c1C)C(C)(C)OC2 [Example 1, N-(4,5-Dimethylisoxazol-3-yl)-2-((3,3,6-trimethyl-1,3-dihydroisobenzofuran-5-yl)ethynyl)pyridine-3-sulfonamide] | A (value of higher than 10×10^−8 cm/sec) | 59% | > 5 µM | 85% | – |
| Cc1cc2c(cc1C#Cc1ncccc1S(=O)(=O)Nc1noc(C)c1C)COC2 [Example 3, N-(4,5-Dimethylisoxazol-3-yl)-2-((6-methyl-1,3-dihydroisobenzofuran-5-yl)ethynyl)pyridine-3-sulfonamide] | A (value of higher than 10×10^−8 cm/sec) | 47% | > 5 µM | 85% | – |
| Cc1cc2c(cc1C#Cc1ncccc1S(=O)(=O)Nc1noc(C)c1C)C(=O)OC2 [Example 4, N-(4,5-Dimethylisoxazol-3-yl)-2-((6-methyl-3-oxo-1,3-dihydroisobenzofuran-5-yl)ethynyl)pyridine-3-sulfonamide] | C (membrane permeation rate value of 1×10^−8 cm/sec or lower) | 49% | > 5 µM | 91% | – |
| Cc1onc(NS(=O)(=O)c2cccnc2C#Cc2ccc3c(c2)COC3)c1C [Example 5, 2-((1,3-Dihydroisobenzofuran-5-yl)ethynyl)-N-(4,5-dimethylisoxazol-3-yl)pyridine-3-sulfonamide] | B (value in the range of higher than 1×10^−8 cm/sec and 10×10^−8 cm/sec or lower) | 63% | > 5 µM | 90% | – |
| Cc1onc(NS(=O)(=O)c2cccnc2C#Cc2cc3c(cc2Cl)COC3)c1C [Example 6, 2-((6-Chloro-1,3-dihydroisobenzofuran-5-yl)ethynyl)-N-(4,5-dimethylisoxazol-3-yl)pyridine-3-sulfonamide] | A (value of higher than 10×10^−8 cm/sec) | 56% | > 5 µM | 54% | – |
| Cc1cc2c(cc1C#Cc1ncccc1S(=O)(=O)Nc1onc(C)c1C)C(C)(C)OC2 [Example 8, N-(3,4-Dimethylisoxazol-5-yl)-2-((3,3,6-trimethyl-1,3-dihydroisobenzofuran-5-yl)ethynyl)pyridine-3-sulfonamide] | B (value in the range of higher than 1×10^−8 cm/sec and 10×10^−8 cm/sec or lower) | 73% | > 5 µM | 40% | – |

The next lines start with the values.

| Membrane permeation rate [1] | Metabolic stability (human), residual rate of the unchanged form [2] | IC50 [3] | Metabolic stability (mouse), residual rate of the unchanged form [4] | inhibition at 5 µM ([3]; at 5000 nM, read-out: ETB receptor inhibitory effect, % inhibition) | Structure (SMILES) |
| --- | --- | --- | --- | --- | --- |
| A (value of higher than 10×10^−8 cm/sec) | 44% | – | 81% | 57% | Cc1cc2c(cc1C#Cc1ncccc1S(=O)(=O)Nc1noc(C)c1Cl)C(C)(C)OC2 [Example 7, N-(4-Chloro-5-methylisoxazol-3-yl)-2-((3,3,6-trimethyl-1,3-dihydroisobenzofuran-5-yl)ethynyl)pyridine-3-sulfonamide] |
| A (value of higher than 10×10^−8 cm/sec) | 28% | > 5 µM | 5% | – | Cc1cc2c(cc1C#Cc1ncccc1S(=O)(=O)Nc1onc(C)c1Cl)C(C)(C)OC2 [Example 9, N-(4-Chloro-3-methylisoxazol-5-yl)-2-((3,3,6-trimethyl-1,3-dihydroisobenzofuran-5-yl)ethynyl)pyridine-3-sulfonamide] |
| A (value of higher than 10×10^−8 cm/sec) | 66% | > 5 µM | 68% | – | COc1nc(C)cnc1NS(=O)(=O)c1cccnc1C#Cc1cc2c(cc1C)COC2(C)C [Example 10, N-(3-Methoxy-5-methylpyrazin-2-yl)-2-((3,3,6-trimethyl-1,3-dihydroisobenzofuran-5-yl)ethynyl)pyridine-3-sulfonamide] |
